Results reported in patent US7001903B2, “Synergistic insecticidal mixtures” (Bayer Aktiengesellschaft, priority 1999, dated 2006).

Assays:
Type in all cases: in vivo
[1] = test system: Myzus persicae; assay: Critical concentration test, foliar insecticidal activity against sucking pests (leaf dip, cabbage); conditions: Myzus persicae on cabbage
Text: Activity of Folia-Insecticidal Formulations Against Sucking Pests
The insecticidal activity was examined using the critical concentration test. From each of the test preparations, an aqueous dilution series is made by diluting the individual concentrations by the factor 5.
To determine any synergistic activity, weakly active concentrations of chloronicotinyl compounds are combined with various active compound concentrations of Tracer (Spinosad).
The test plants used are cabbage plants at the one-leaf stage which are infested by Myzus persicae (green peach aphid). The shoots or leaves with the aphids are dipped for approximately 3 seconds into the respective liquors. The experiments are subsequently placed in a greenhouse at 21° C. and 65% relative atmospheric humidity.
Evaluation for mortality is carried out after 2 and 7 days.

[2] = test system: Phaedon cochleariae larvae; assay: Critical concentration test / root-systemic action (cabbage, soil treatment)
Experimental: (§1) Critical Concentration Test/Root-Systemic Action
To produce a suitable preparation of active compound, 1 part by weight of active compound is mixed with the stated amount of solvent, the stated amount of emulsifier is added and the concentrate is diluted with water to the desired concentration.
The active compound preparation is mixed intimately with soil. The concentration of the active compound in the preparation is of virtually no importance, only the amount by weight of active compound per unit volume of soil, which is given in ppm (=mg/l), being decisive. The treated soil is filled into 500 ml pots, 8 cabbage seeds are placed at a depth of approximately 1 cm, the hole is filled and the soil surface is pressed down gently.
After a further 3 days, the test is evaluated by estimating the leaf-feeding in the treated and in the untreated plant. The effect is 100% if, compared with the untreated control, only […] feeding damage is observed; it is 0% when the entire cabbage has been eaten.

[3] = test system: Aphis fabae; assay: Critical concentration test / root-systemic action (broad beans, soil treatment); conditions: 0.035 ppm in soil
Experimental: as §1
To produce a suitable preparation of active compound, 1 part by weight of active compound is mixed with a stated amount of solvent, the stated amount of emulsifier is added and the concentrate is diluted with water to the desired concentration.
The active compound preparation is mixed intimately with soil. The concentration of the active compound in the preparation is of virtually no importance, only the amount by weight of active compound per unit volume of soil, which is given in ppm (=mg/l), being decisive. The treated soil is filled into 250 ml pots and the pots are planted with pre-germinated broad beans. In this manner, the active compound can be taken up from the soil by the roots of the plants and transported into the leaves.
After a further 7 days, the test is evaluated by estimating the dead animals. The root-systemic effect of the active compound is deduced from the destruction figures. It is 100% when all the test animals have been killed and 0% when just as many test insects are still alive as in the untreated control.

[4] = compound (III) alone 0.00016% a.i., evaluation after 2 days
[5] = compound (III) alone 0.00016% a.i., evaluation after 7 days
[6] = compound (III) alone 0.0008% a.i., evaluation after 2 days
[7] = compound (III) alone 0.0008% a.i., evaluation after 7 days

Q: Which kill [1, 4] does the source give for `N#C/N=C1\SCCN1Cc1ccc(Cl)nc1` [Compound (III l)] here?
A: 8%

Q: And the kill [1, 5]?
A: 0%

Q: What about the kill [1, 6] of the same compound?
A: 85%

Q: What about the kill [1, 7] of the same compound?
A: 38%

Q: What about the “Degree of destruction in % at active compound concentrations” value (“Degree of destruction in %” for short) ([2]; 2.50 ppm in soil) of the same compound?
A: 2.50 ppm = 0%

Q: How did the kill [1, 4] turn out when `O=[N+]([O-])/N=C1\NCCN1Cc1ccc(Cl)nc1` [Compound (IIIa)] was run?
A: 18%

Q: And the kill [1, 5]?
A: 2%

Q: And the kill [1, 6]?
A: 90%

Q: And the kill [1, 7]?
A: 78%

Q: What about the “Degree of destruction in %” value [3] of the same compound?
A: 0.035 ppm = 50%

Q: What about the “Degree of destruction in %” value ([2]; 1.25 ppm in soil) of the same compound?
A: 1.25 ppm = 0%

Q: With `C/C(=N\C#N)N(C)Cc1ccc(Cl)nc1` [Compound (IIIe)] as the compound, how does the “Degree of destruction in %” value ([2]; 5.00 ppm in soil) read?
A: 5.00 ppm = 0%

Q: With `CN1COCN(Cc2cnc(Cl)s2)/C1=N/[N+](=O)[O-]` [Compound (IIIg)] as the compound, how does the kill [1, 4] read?
A: 0%

Q: What about the kill [1, 5] of the same compound?
A: 0%

Q: And the kill [1, 6]?
A: 79%

Q: And the kill [1, 7]?
A: 70%

Q: What about the “Degree of destruction in %” value ([2]; 0.30 ppm in soil) of the same compound?
A: 0.30 ppm = 50%

Q: Which results are given for `CN/C(=N\[N+](=O)[O-])NCc1cnc(Cl)s1` [Compound (IIIk)]?
A: kill [1, 4]: 10%; kill [1, 5]: 2%; kill [1, 6]: 48%; kill [1, 7]: 28%; Degree of destruction in % at active compound concentrations ([2]; 0.30 ppm in soil): 0.30 ppm = 0%
